# Measured values published in patent publication US11872230B2, “Method of treating a methionine-dependent cancer” (Agency for Science, Technology and Research, priority 2018, dated 2024).
# Legend:
# [1] = test system: histone methylation in TS cells; assay: Western blot of methylated histones in TS cells; type: cell-based, human; conditions: TS cells exposed transiently (48 h) to inhibitor
# Procedure: (§1) 1.5×10^6 cells were lysed in Llaemli-SDS buffer and then sonicated. Total protein concentration was measured by Bradford assay. Total cell lysates were separated by SDS-PAGE and transferred onto nitrocellulose, followed by blocking in 5% (v/v) milk in Tris-buffered saline in Tween 20, probing with the indicated antibodies and visualized by chemiluminescence (Roche). Primary antibodies used were anti-β-Actin (sc-47778), anti-GAPDH (sc-32233) from Santa Cruz: anti-GLDC (ab97625), anti-H3 (ab1791), anti-H3 (dimethylK36) (ab9049), anti-MAT2A (ab77471), anti-MTR (ab9209), anti-H3 (trimethylK79) (ab2621), anti-MTHFR (ab125707), anti-MTAP (ab ab55517) from Abcam; anti-H3(trimethyl K4) (39159), anti-H3(trimethyl K27)(39155), anti-H3(trimethylK36)(61101) and anti-H3(trimethylK9)(39765) from Active Motif; anti-β-catenin (BD610154) from BD Biosciences; anti-SHMT2 (HPA020549) and anti-SAHH (WH0000191M8) from Sigma; anti-Symmetric Di-Methyl Arginine Motif (13222) from CST.
# (§2) To evaluate the methionine cycle as a therapeutic target in lung TICs, small molecule inhibitors that target enzymes within this pathway were employed, mimicking the effects of short-term methionine starvation (FIG. 5a). two inhibitors known to perturb methionine cycle activity and cellular methylation levels: 1) MAT2A inhibitor, FIDAS5; and 2) SAHH inhibitor, D9, which is an analog of DZNep. In a manner similar to amino acid starvation studies, TS cells were exposed transiently to the compounds for 48 h in culture and were immediately used for downstream tumorigenesis assays.
# [2] = test system: histone methylation in NIH 3T3 cells; assay: Western blot of methylated histones in NIH 3T3 cells; type: cell-based; conditions: FIDAS5 treatment
# Procedure: as §1
# TS cells (lung TICs) [3] = assay: Soft agar colony formation of pre-treated TS cells; type: cell-based, human; conditions: TS cells treated 48 h with inhibitor prior to soft agar assay
# Procedure: 2.5 ml lower layer of 0.7% agar in complete DMEM/F12 with 10% fetal bovine serum was placed in 3 wells of a 6 well dish, and permitted to solidify. 2×10^4 Cells (for 3 wells) were then suspended in a 2 ml layer of 0.35% agar in complete DMEM/F12 with 10% fetal bovine serum and layered on top of the bottom layer. Colonies were stained with crystal violet and counted after approximately 2 months.
# as §2
# TS cells (lung TICs) [4] = assay: Tumor formation in NSG mice after transplantation of pre-treated TS cells; type: in vivo; conditions: 500,000 TS cells treated 48 h with inhibitor, transplanted into NSG mice, 6 weeks
# Source text: (§3) 5×10^5 single cells were mixed in a 1:1 mixture of serum free DMEM/F12 and Matrigel (BD) and injected subcutaneously into the flanks of 4-6 week old male and female NOD.Cg-Prkdc^scid Il2rg^tm1wjl SzJ (Jackson Laboratories). About 6 weeks later, or when tumor sizes exceed 2 cm in length, mice were sacrificed and tumors harvested for analysis. All animal experiments were approved by the Agency for Science Technology and Research Singapore—Biological Resource Centre. Mice were randomized by sex.
# as §2
# TS cells [5] = assay: Cell proliferation assay (CellTiter-Glo) of TS cells; type: cell-based, human
# Procedure: (§4) Cells were seeded into 96-well plates at a density of 2,000 cells/well for TS cells and 500 cells/well for Adh cells. The relative number of viable cells was determined by the quantification of ATP using the CellTiter-Glo Luminescent Cell Viability Assay (Promega) system.
# TS cells [6] = assay: Apoptosis assay (Annexin V/PI) of inhibitor treated TS cells; type: cell-based, human; conditions: transient exposure
# Source text: 10^6 cells were stained with FITC Annexin V and PI, and analysed for apoptosis by flow cytometry using an LSRII Cell Analyzer (BD) according to manufacturer's instructions.
# Adh cells = assay: Proliferation of Adh cells grown in FIDAS5-containing media; type: cell-based, human
# Procedure: as §4
# TS cells (lung TICs) [7] = assay: Intraperitoneal administration to NSG mice subcutaneously implanted with lung TICs; type: in vivo; conditions: FIDAS5 40 mg/kg i.p., three consecutive days, after 6 weeks
# Source text: as §3
# Since FIDAS5 appeared to more specifically disrupt the methionine cycle and inhibit cellular methylation activities compared to D9, it was sought to test whether its systemic delivery could impact the tumorigenic potential of TS cells. These highly tumorigenic cells were first subcutaneously implanted into NSG mice and FIDAS5 (40 mg/kg) or corn oil carrier was immediately administered via intraperitoneal injection for three consecutive days. After 6 weeks, mice transiently treated with FIDAS5 produced tumors that were much smaller than carrier-treated controls. […] To exclude the possibility of general cytotoxicity associated with the inhibitor on TS cells, TS cell-implanted NSG mice were treated with cisplatin (4 mg/kg), a frontline chemotherapeutic agent that broadly target bulk cancer cells in NSCLC tumors, in the same manner (FIG. 5i). […]
# TS cells [8] = assay: Orthotopically implanted GFP-expressing TS cells in lungs of NSG mice; type: in vivo; conditions: orthotopic TS cells, transient treatment for 3 days, 5 weeks post implantation
# Source text: GFP expressing 1.5×10^6 single TS cells (transduced with PLL3.7 vector) with suspended in tumor sphere media and injected intravenously through tail-vein into 4-6 week old male and female NOD.Cg-Prkdc^scid Il2rg^tm1wjl SWJ (Jackson Laboratories) mice. Mice were continuously monitored and then sacrificed at 5 weeks post injection. Lungs were harvested, fixed in 4% paraformaldehyde and embedded in paraffin for subsequent analysis. Anti-GFP (ab13970) antibody from Abcam and Alexa-Fluor Goat 488 anti-Chicken antibody (A-11039; ThermoFisher) was used to visualize and quantify GFP-positive lesions using immunofluorescence protocol outlined above. Mice were randomized by sex.
# Since FIDAS5 appeared to more specifically disrupt the methionine cycle and inhibit cellular methylation activities compared to D9, it was sought to test whether its systemic delivery could impact the tumorigenic potential of TS cells. These highly tumorigenic cells were first subcutaneously implanted into NSG mice and FIDAS5 (40 mg/kg) or corn oil carrier was immediately administered via intraperitoneal injection for three consecutive days. After 6 weeks, mice transiently treated with FIDAS5 produced tumors that were much smaller than carrier-treated controls. […]
# [9] = test system: cancer cell lines with high or low MAT2A expression; assay: Proliferation of cancer cell lines grown in FIDAS5 containing medium; type: cell-based; conditions: 10 uM
# Procedure: as §4
smiles,measurement,setting,value
CNc1ccc(/C=C/c2c(F)cccc2Cl)cc1 [FIDAS5],histone methylation levels,[1],complete ablation
same,histone methylation marks,[2],did not demonstrate reduction in histone methylation marks
same,colony-forming ability,TS cells (lung TICs) [3],severely diminished
same,tumor-forming ability,TS cells (lung TICs) [4],severely diminished
same,growth capacity,"TS cells [5]; TS cells exposed to FIDAS5 for six days, then medium without FIDAS5",completely ablated
same,long-term proliferation ability,"TS cells [5]; TS cells, transient 48 h exposure then complete media",did not negatively impact
same,apoptosis,TS cells [6],did not negatively impact their long-term proliferation ability or trigger apoptosis
same,proliferation in FIDAS5-containing media,Adh cells,far less affected
same,tumor size vs carrier-treated controls,TS cells (lung TICs) [7],much smaller
same,number of pulmonary lesions,TS cells [8],decreased number of pulmonary lesions
same,growth upon FIDAS5 treatment,[9]; cancer cell lines expressing high MAT2A,dramatically hampered in their growth
same,growth upon FIDAS5 treatment,[9]; cancer cell lines expressing low MAT2A,largely insensitive
